Holding throughout (type): cell-based
Experiment [1] relates to REV-ERB. The experiment is described as follows: Luciferase-based assay of REV-ERB mediated transcriptional regulation (RevRE/SV40-CLuc reporter in HEK-293 cells). To be noted: HEK-293 cells transfected with RevRE reporter and REV-ERBα and/or β; read 24 h post-transfection; read-out: REV-ERB antagonism EC50. The source says: Luciferase-Base Assay to Assess the Activity of the Compounds on REV-ERB Mediated Transcriptional Regulation
In order to assess the effect of the compounds of the invention on REV-ERB activity the inventors exploited the ability of REV-ERB to repress gene transcription of a specific DNA cis-element. In fact, the DNA binding domain (DBD) of REV-ERB recognizes specific DNA sequences (called RevREs=Rev-erb Responsive Elements) which contains an AGGTCA motif linked in 5′ to an A/T rich sequence harboring the following consensus: A/T A A/T N T (Harding et al., Mol Cell Biol., 1993; 13:3113).
Therefore, two repetitions of the RevRE consensus AGAATGTAGGTCA (SEQ ID NO: 13) upstream a SV40 promoter driving the expression of a reporter gene were cloned. As reported, the luciferase enzyme from the ostracod Cypridina noctiluca was adopted. […] Cypridina luciferase (CLuc) is secreted from cells by virtue of its natural signal peptide and its luminescence can be measured from the supernatant of transfected cells. Therefore, cell lysis is not necessary. Secreted CLuc is a very stable protein. Because of this property, the activity measured from the supernatant reflects the amount of protein accumulated up to the time of sampling. Multiple samples can therefore be obtained from the same transfected cells, allowing an easy set-up of time-course experiments. In addition, the direct use of the supernatant makes the system easily prone to automation for High Throughput Screening.
In order to normalize the experiment for the transfection efficiency, it was used a plasmid containing a SV40 promoter driving the expression of a secreted form of human alkaline phosphatase (SEAP), which enzymatic activity in the supernatant can be measured with chemiluminescence substrates.
To be able to rule out false-positive, for example due to the interference of the compounds to be tested with the fluorescence and/or chemiluminescence reactions, it was used as control a mutated version of the RevRE (GAGCCCGTAGGTCA) (SEQ ID NO: 14) that is no longer able to bind REV-ERB DBD (Harding et al., Mol Cell Biol., 1993; 13:3113).
The person skilled in the art will appreciate that an agonist will improve the ability of REV-ERB to repress the transcription, reducing the luminescence signal, while an antagonist will produce the opposite effect.
For the assay, HEK-293 cells were transfected with the reporter vectors and a plasmid expressing the REV-ERBα and/or β protein. After 6 h from transfection, the medium was replaced with fresh medium containing different doses of the compounds or vehicle (DMSO). After 24 h post-transfection, the supernatant was analyzed for the secreted luciferase and AP activity according to the manufacture instruction. Data normalized as fold activation versus vehicle (DMSO) were fitted using a four-parameter dose-response curve to calculate the EC50 of the different compounds.
(§1) The different compounds were tested for their ability to inhibit the growth of the tumorigenic breast cancer cells BT-474 and for their antagonistic activity toward REV-ERB transcriptional repression, as described in the biological method section.
For the cell growth inhibition (GI) the growth inhibition 50 (GI50) and the growth inhibition max (GImax) are reported. […] The bottom plateaus of the curve was used to calculate the Growth Inhibition max (GImax), defined as the percentage of the reduction of cells after 48 h upon a saturating dose of the administered compound. Compounds with a GI50<100 μM were also tested for their antagonistic activity toward REV-ERB. […]

In experiment [2] the test system is HepG2. The experiment is described as follows: Growth inhibition of different tumor cell lines: HepG2. The conditions noted are these: Homo sapiens; HepG2, liver hepatocellular carcinoma, p53 Wild-Type. The source says:
(§2) The CyQUANT® Cell Proliferation Assay Kit (Invitrogen) was used, an assay that has a linear detection range extending from 50 or fewer to at least 250,000 cells.
(§3) Frozen cells are simply thawed and lysed by addition of a buffer containing the CyQUANT®.
(§4) Data were collected and analyzed with Prism 5 software to calculate the growth inhibition curve.
(§5) In particular, values obtained from the DMSO treated cells was set at 100% of growth. Data from treatment of cells with serial dilutions of the compounds were normalized versus the DMSO group and fitted using a four-parameter dose-response curve.
(§6) GI50 was calculated as the concentration of compound that gives a response half way between bottom and top plateaus of the fitted curve.
(§7) To test if the growth inhibition activity of the compound of example 1 was limited to breast cancer BT-474 cells, or if it could be generalized in other tumor cells from different tissues, the GI50 of compound of example 1 was tested in several cell lines.

For experiment [3], the system named is HCT116-E6. The experiment is described as follows: Growth inhibition of different tumor cell lines: HCT116-E6. The conditions noted are these: HCT116-E6, colorectal carcinoma, p53 no protein expression.
From the text: as §2, §3, §4, §5, §6, §7

Experiment [4] concerns CaCO2. The experiment is described as follows: Growth inhibition of different tumor cell lines: CaCO2. To be noted: Homo sapiens, Caco-2; CaCO2, colorectal adenocarcinoma, p53 no protein expression.
From the text: as §2, §3, §4, §5, §6, §7

The test system of experiment [5] is HCT116. The experiment is described as follows: Growth inhibition of different tumor cell lines: HCT116. The conditions noted are these: Homo sapiens, HCT-116; HCT116, colorectal carcinoma, p53 Wild-Type.
From the text: as §2, §3, §4, §5, §6, §7

For experiment [6], the system named is WiDr. In words: Growth inhibition of different tumor cell lines: WiDr. To be noted: Homo sapiens, colon adenocarcinoma, p53 mutant protein.
From the text: as §2, §3, §4, §5, §6, §7

For experiment [7], the system named is tumorigenic breast cancer cells BT-474. In words: Growth inhibition assay (CyQUANT Cell Proliferation Assay) in BT-474 cells. To be noted: Homo sapiens.
From the text: Given that REV-ERB target genes include several metabolic regulators, such as Pgc-1α and Nampt, it was decided to test the cell proliferation with a method that is independent from the metabolic state of the cell.
as §2, §3
For the assay, tumorigenic breast cancer cells BT-474 cells were seeded at 2500 cells per well in a 96-well plate and incubated over-night at 37° C. Then, fresh medium containing different concentration of the compounds or vehicle (DMSO) was added and cells were growth 48 h at 37° C. Finally, cells were frozen at […] and then processed according to the manufacture instructions. A minimum of triplicate data for each dose was used for the analysis.
as §4, §5, §6
The bottom plateaus of the fitted curve was used to calculate the Growth Inhibition max (GImax), defined as the percentage of the reduction of cells after 48 h upon a saturating dose of compound.
as §1
For the cell growth inhibition (GI) the growth inhibition 50 (GI50) and the growth inhibition max (GImax) are reported. […] The bottom plateaus of the curve was used to calculate the Growth Inhibition max (GImax), defined as the percentage of the reduction of cells after 48 h upon a saturating dose of the administered compound. Compounds with a GI50<100 μM were also tested for their antagonistic activity toward REV-ERB. For these compounds, the EC50 value is provided, calculated as the concentration of compound that gives a response half between the bottom (expression of the reporter in absence of compound) and the top (expression of the reporter at saturating doses of compound) plateaus of the fitted curves (see biological method section for a description of the reported assay). n.d.=not determined; n.t.=not tested.

The test system of experiment [8] is SK-Hep1. In words: Growth inhibition of different tumor cell lines: SK-Hep1. To be noted: Homo sapiens; SK-Hep1, liver adenocarcinoma, p53 Wild-Type.
From the text: as §2, §3, §4, §5, §6, §7

Experiment [9] deals with Colo-205. The experiment is described as follows: Growth inhibition of different tumor cell lines: Colo-205. To be noted: Homo sapiens; Colo-205, colon, metastatic site: ascites, p53 mutant protein.
From the text: as §2, §3, §4, §5, §6, §7

For experiment [10], the system named is Hep3B. The experiment is described as follows: Growth inhibition of different tumor cell lines: Hep3B. The conditions noted are these: Homo sapiens, liver hepatocellular carcinoma, p53 no protein expression.
From the text: as §2, §3, §4, §5, §6, §7

The test system of experiment [11] is HuH7. In words: Growth inhibition of different tumor cell lines: HuH7. To be noted: Homo sapiens, Huh-7; HuH7, liver hepatocellular carcinoma, p53 mutant protein.
From the text: as §2, §3, §4, §5, §6, §7

In experiment [12] the test system is endogenous REV-ERB mediated transcription. In words: Gene expression analysis (qPCR) of endogenous REV-ERB target genes in BT-474 cells. The conditions noted are these: 24 h, different doses, qPCR normalised to Gapdh. Here is the method: Gene Expression Analysis of Endogenous REV-ERB Target Genes after Treatment with the Compound of Example 1
In order to test the effect of the compound of example 1 on the endogenous REV-ERB mediated transcription, BT-474 cells were treated 24 h with different doses of the compound of the example 1 and then processed for RNA extraction.
Total RNA was extracted with Trizol reagent (Invitrogen) according to the manufacture instruction. One microgram of RNA was retro-transcribed with VILO retrotranscription mix (Invitrogen) and subsequently analyzed by qPCR as described in Grimaldi et al., Cell Metab., 2010; 12:509-520.
The REV-ERB targets Per1, Bmal1, Nampt, and p21 were analyzed. Gapdh gene was used to normalize the data, while Hprt1 gene was used as independent REV-ERB gene (negative control).
The results obtained are illustrated in FIG. 1 Values are presented as Relative expression, calculated versus the normalizing gene Gapdh, and shown as mean±SEM from at least 3 independent experiments. The expression of the REV-ERBs independent gene, Hprt1, was used as negative control.

Counter-ions that a name gives are not always drawn.

As a reminder, the EC50 is the concentration giving half of the maximal effect. By GI50 is commonly meant the concentration giving 50% growth inhibition. In the case of `CN1CCN(Cc2cc(CNC3(c4ccccc4F)CCCC3)ccc2O)CC1` [Example 1, 4-[[[1-(2-Fluorophenyl)cyclopentyl]amino]methyl]-2-[(4-methylpiperazin-1-yl)methyl]phenol trihydrochloride], the EC50 in [1] is 25 µM. In addition, the concentration for 50% growth inhibition (GI50) in experiment [2] turned out to be 10 µM; in experiment [3] it was 20 µM; in experiment [4], 18 µM; in [5], 19 µM; in [6], 12 µM; in experiment [7] (48 h, CyQUANT, read-out: Cell Growth Inibition GI50) it was 18 µM. The 50% growth inhibitory concentration (GI50) in [8] amounted to 50 µM; in experiment [9], 30 µM; in [10] it was 10 µM; in [11], 8 µM. The Emax in experiment [7] (reduction of cells after 48 h at saturating dose, read-out: Cell Growth Inibition GImax) amounted to 72%. Moreover, the “expression of Bmal1 (REV-ERB target, circadian regulation)” value in experiment [12] was “induced in a dose-dependent manner”. Also, in experiment [12], the “expression of Nampt (REV-ERB target, metabolism)” value is “induced in a dose-dependent manner”. Further, the “expression of Per1 (REV-ERB target, circadian regulation)” value in experiment [12] is on record as “induced in a dose-dependent manner”. Moreover, the “expression of p21 (REV-ERB target, cell cycle)” value in experiment [12] is “induced in a dose-dependent manner”. Moreover, the “expression of the REV-ERB independent gene Hprt1 (negative control)” value in [12] is reported as “negligible effects”.

The record behind these values is patent US9949968B2, “Diarylalkylamine REV-ERB antagonists and their use as medicaments” (FONDAZIONE ISTITUTO ITALIANO DI TECNOLOGIA, priority 2013, dated 2018).
